In PMC3654553, “A PPARγ ligand present in Actinidia fruit (Actinidia chrysantha) is identified as dilinolenoyl galactosyl glycerol” (Bioscience Reports, 2013):

Legend:
[1] = molecular target: T1, PPARγ (peroxisome-proliferator-activated receptor γ) (Homo sapiens, UniProt P37231); experiment: competitive fluorescence polarization of HPLC fraction […], dilution series and time course; format: binding
T1 construct: gene PPARG
T1 sequence (P37231 231-505 limits assumed): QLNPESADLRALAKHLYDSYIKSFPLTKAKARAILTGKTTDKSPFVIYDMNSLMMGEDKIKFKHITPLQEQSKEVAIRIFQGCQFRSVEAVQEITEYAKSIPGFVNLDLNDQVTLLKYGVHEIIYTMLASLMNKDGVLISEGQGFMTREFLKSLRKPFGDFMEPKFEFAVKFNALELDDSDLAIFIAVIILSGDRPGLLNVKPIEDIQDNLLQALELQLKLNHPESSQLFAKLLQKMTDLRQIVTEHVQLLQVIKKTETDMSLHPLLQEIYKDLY

[2] = molecular target: T1, PPARγ (peroxisome-proliferator-activated receptor γ); experiment: competitive fluorescence polarization (PolarScreen PPARγ green), time course; intact protein ESI-MS shows no covalent adduct; format: binding
[3] = molecular target: T1, PPARγ (peroxisome-proliferator-activated receptor γ)

SMILES: CCCCC/C=C\C/C=C\CCCCCCCC(=O)O [compound 6, linoleic acid]
- competitive fluorescence polarization of HPLC fraction 6, dilution series and ti [1]: α-linolenic acid and linoleic acid bind to PPARγ immediately under the assay conditions used

SMILES: CC/C=C\C/C=C\C/C=C\CCCCCCCC(=O)OC[C@H](CO[C@@H]1O[C@H](CO)[C@H](O)[C@H](O)[C@H]1O)OC(=O)CCCCCCC/C=C\C/C=C\C/C=C\CC [compound 11, DLGG]
- IC50 [2]: 1.64 µM

SMILES: CC/C=C\C/C=C\C/C=C\CCCCCCCC(=O)O [compound 5, α-linolenic acid]
- competitive fluorescence polarization of HPLC fraction 5, dilution series [3]: α-linolenic acid and linoleic acid bind to PPARγ immediately under the assay conditions used
